Results: patent US20210172961A1, “METHODS FOR IDENTIFYING RNA EDITING-DERIVED EPITOPES THAT ELICIT IMMUNE RESPONSES IN CANCER” (Board of Regents, The University of Texas System, priority 2018, published 2021)

Experiments:
Type in all cases: cell-based, human
[1] = system: melanoma TILs; test: IFNγ ELISPOT of melanoma TILs incubated with synthetic peptide; conditions: for IFNγ production by TILs (ELISPOT response to peptide): 15 HLA-A*02:01-expressing melanoma TILs, peptide 10 μM
Excerpt: To examine whether the detected HLA ligands are recognized by tumor-infiltrating lymphocytes (TILs) and if these TILs can kill cells presenting ED. For this analysis, matched autologous pairs of melanoma TILs and tumor cell lines were used. CCNI-ED peptide and its WT counterpart were synthesized and evaluated for their ability to activate TILs generated from human melanoma tumours.
Melanoma TILs were generated as described before. Briefly, melanoma tumor samples were either cut into 1-3 mm^2 fragments and put in culture in a tissue-treated 24-well plate, in complete TIL media (TIL-CM) consisting of RPMI 1640 (Gibco, 61871), 10% of human AB serum (GEMINI, 100-512), 0.1% of 2-mercaptoethanol (Gibco, 21985023), 1% of HEPES (Corning, 25-060), 1% sodium pyruvate (Invitrogen/Life Technologies, 11360-070), 1% of Glutomax (Gibco, 35050061), 1% PenStrep (ThermoFisher, 15070063) plus 6000 U/mL of human IL-2 or put in culture after the tumor samples were enzymatically digested by collagenase for 1 h at 37° C. followed by centrifugation using a multi-layer Ficoll gradient (100% and 75%, Ficoll-Paque PLUS, GE, 17-1440-02) where the 100% layer was collected for TILs. Every 3 days, half of the medium was replaced with fresh medium and the TIL culture was split to keep the cells at a density of 1×10^6/mL. TILs were expanded between 2 to 5 weeks, depending on the TIL lines. To increase the number of TILs available for experiments, the lines were further expanded using the rapid expansion protocol (REP). In brief, 1.5×10^5 primary TILs generated above were cultured with 27×10^6 feeder cells together with 0.6 mg soluble anti-CD3 monoclonal antibody (OKT3 clone, Muronomab—Abbott Labs). The feeder cells are peripheral blood mononuclear (PBMC) cells mixed from at least 5 healthy donors and irradiated at 5,000 cGy for 20 minutes prior to culture in order to prevent their proliferation during the REP. 6,000 U/mL IL-2 was added at the second day and half of the medium was recovered and replaced with fresh medium containing 50% of TIL-CM and 50% of AIM-V medium (Invitrogen, 12055-083) every 3 days to keep TIL density between 0.5-2×10^6/mL. The cultured TILs were harvested at day 14 for functional analysis or frozen in human serum with 10% DMSO (Thermo Fisher, 67-68-5). Autologous tumor cell lines were also established from the enzymatically digested tumours followed by the multi-layer Ficoll gradient where the 75% layer was collected and put in culture in complete tumor media (RPMI 1640, Gibco, 61871) containing 10% FBS, 1% HEPES (Corning, 25-060), 1% sodium pyruvate (Invitrogen/Life Technologies, 11360-070), 1% insulin/selenium/transferrin (Gibco, 51300), 0.2% MycoZap-PR (Lonza, VZA-2011). All tumor samples were HLA typed at the HLA-A locus in the MD Anderson HLA Typing Laboratory. […]

[2] = system: 293-A2 cells; test: IFNγ ELISPOT of Ted10 with peptide-pulsed or CCNI-transfected 293-A2 cells; conditions: 293-A2 cells pulsed with peptide
Description: To investigate this relationship on cellular level, CCNI-ED10-specific effector T cells (Ted10) were generated from HLA-A*02:01-expressing normal peripheral blood mononuclear cells (PBMCs) using an established method.
IFNγ Enzyme-linked immunospot (ELISPOT) assay was performed to detect T-cell responses. MultiScreen 96 well filter plates (Millipore, MAHAS4510) were coated over night at 4° C. with 75 μL/well of […] anti-human IFNγ capture antibody (Mabtech AB, 3420-3-1000). TILs or CCNI-ED specific T cells (Ted10) were thawed and cultured with 1000U of human IL-2/mL overnight. On the next day, before performing ELISPOT assay, T cells were starved with IL-2 free medium for 6 hours. […] After 18 hours of cultivation at 37° C. and 5% CO2, the plates were incubated with 1 ng/mL of Biotinylated anti-human IFNγ monoclonal antibody (Mabtech, 3420-6-1000) for one hour, stained with ExtrAvidine®-Alkaline phosphatase (Sigma-Aldrich, E2636) and IFNγ positive spots were detected with BCIP/NBT Membrane Alkaline Phosphatase Substrate (Sigma, 11697471001). Plates were scanned and counted using the ImmunoSpot® ELISPOT analyzer (Shaker Heights, Ohio) to determine the number of spots/well. […]

[3] = system: T2 cells; test: Caspase3 based CTL killing assay, TIL2661 against peptide-pulsed T2 cells; conditions: T2 pulsed with 10 μM peptide, anti-caspase3 staining, flow cytometry
Excerpt: T cells play a primary role in adaptive immunity against infections and tumorigenesis, and therapies based on manipulating T-cell activation have shown promise in cancer treatment. To determine the function of CCNI-ED specific T cells in mediating tumor cell killing, the HLA-A*02:01 expressing lymphoblast cell line T2, which is lacking expression of the transporter associated with antigen processing (TAP) and thus incapable of presenting endogenous peptides, were employed. The CCNI-WT or CCNI-ED peptide were pulsed onto T2 cells, co-cultured with TIL2661 in different ratios, and then measured T-cell mediated target cell death based on anti-caspase3 staining and subsequent flow cytometric quantification. […]
T cell-mediated cell killing was analyzed using a flow cytometry-based method by detecting T cell-induced caspase-3 cleavage in target cells. […] T cell-mediated caspase-3 cleavage was measured by intracellular staining with Cytofix/Cytoperm reagent (BD Biosciences, 554772) and PE conjugated anti-cleaved caspase-3 antibody (BD Bioscience, 550821) and the number of pre-apoptotic cells were determined by flow cytometry.

LLDGFLATV (listed as Homo sapiens) [CCNI-ED9, RNA editing-derived HLA peptide, editing site CCNI R75G]
IFNγ ELISPOT response of TIL to peptide ([1]; TIL2576, parallel assay with the same TILs): weakly reacted

SLLDGFLATV (listed as Homo sapiens) [CCNI-ED10, RNA editing-derived HLA peptide, editing site CCNI R75G]
IFNγ production by Ted10 (ELISPOT) [2]: potently activated | TIL2661 mediated killing of peptide-pulsed T2 cells [3]: facilitated target killing | IFNγ production by TILs (ELISPOT response to peptide) ([1]; triplicates): strongly responded | number of HLA-A*02:01-expressing TILs that responded (TIL2678, TIL2661, TIL2559) ([1]; IFNγ ELISPOT, triplicates): 3 out of 15

SLLDRFLATV (listed as Homo sapiens) [CCNI-WT10, non-edited wildtype counterpart of CCNI-ED10, reference compound]
TIL2661 mediated killing of peptide-pulsed T2 cells [3]: CCNI-ED10, rather than CCNI-WT10, to T2 cells facilitated target killing | IFNγ production by TILs (ELISPOT response to peptide) ([1]; triplicates): none of the TILs responded
